# Assay results taken from the Kinase Knowledgebase extract (Sharma et al. 2016).
# Molecular target: MAPK14 (UniProt Q16539)
# Assay: Inhibition of MAPK14 Kinase Activity
# MAPK14, sequence (Q16539 whole entry, looked up): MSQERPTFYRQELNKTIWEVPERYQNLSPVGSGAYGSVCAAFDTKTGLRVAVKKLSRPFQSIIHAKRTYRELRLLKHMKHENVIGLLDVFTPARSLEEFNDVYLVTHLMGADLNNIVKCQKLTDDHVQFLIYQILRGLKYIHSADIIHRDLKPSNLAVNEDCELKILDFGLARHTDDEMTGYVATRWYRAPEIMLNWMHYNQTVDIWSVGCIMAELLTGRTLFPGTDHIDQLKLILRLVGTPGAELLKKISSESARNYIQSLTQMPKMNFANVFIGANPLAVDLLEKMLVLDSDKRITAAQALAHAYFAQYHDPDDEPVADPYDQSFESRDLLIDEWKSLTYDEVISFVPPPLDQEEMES
row,SMILES,IC50
1,Cc1ccc(C(=O)NC2CC2)cc1-c1ccc2c(CN3CCOCC3)noc2c1,< 10 µM
2,Cc1ccc(C(=O)NC2CC2)cc1-c1ccc2c(CC(=O)N3CCCCC3)noc2c1,< 10 µM
3,CNC(=O)c1noc2cc(-c3cc(C(=O)NC4CC4)cc(F)c3C)ccc12,< 10 µM
4,Cc1ccc(C(=O)Nc2ccnc(N3CCCC3)c2)cc1-c1ccc2c(C)noc2c1,< 10 µM
5,CC(=O)c1ccc(S(=O)(=O)n2ncc3cc(-c4cc(C(=O)NC5CC5)ccc4C)ccc32)cc1,< 10 µM
6,Cc1ccc(C(=O)NC2CC2)cc1-c1ccc2c(cnn2S(=O)(=O)c2c(C)nn(C)c2C)c1,< 10 µM
7,Cc1c(F)cc(C(=O)NC2CC2)cc1-c1ccc2c(cnn2S(=O)(=O)c2cc(F)ccc2F)c1,< 10 µM
8,Cc1c(F)cc(C(=O)NC2CC2)cc1-c1ccc2c(cnn2S(=O)(=O)c2cc(F)cc(F)c2)c1,< 10 µM
9,Cc1ccc(F)cc1S(=O)(=O)n1ncc2cc(-c3cc(C(=O)NC4CC4)cc(F)c3C)ccc21,< 10 µM
10,CCCS(=O)(=O)n1ncc2cc(-c3cc(C(=O)NC4CC4)ccc3C)ccc21,< 10 µM
11,Cc1ccc(C(=O)NC2CC2)cc1-c1ccc2c(cnn2S(=O)(=O)c2c(C)noc2C)c1,< 10 µM
12,Cc1ccc(C(=O)NC2CC2)cc1-c1ccc2c(CN3CCCCC3)noc2c1,< 10 µM
13,COC(=O)c1ccc(CS(=O)(=O)n2ncc3cc(-c4cc(C(=O)NC5CC5)ccc4C)ccc32)cc1,< 10 µM
14,Cc1ccc(C(=O)Nc2nncs2)cc1-c1ccc2c(C3CCNCC3)noc2c1,< 10 µM
15,Cc1ccc(C(=O)NC2CC2)cc1-c1ccc2c(cnn2S(=O)(=O)c2ccccc2C#N)c1,< 10 µM
16,Cc1ccc(C(=O)NC2CC2)cc1-c1ccc2[nH]ncc2c1,< 10 µM
17,Cc1ccc(C(=O)NC2CC2)cc1-c1ccc2c(cnn2S(=O)(=O)CC(F)(F)F)c1,< 10 µM
18,Cc1ccc(C(=O)NC2CC2)cc1-c1ccc2c(N3CCNCC3)noc2c1,< 10 µM
19,COC(=O)Cc1noc2cc(-c3cc(C(=O)NC4CC4)ccc3C)ccc12,< 10 µM
20,CCc1ccc(S(=O)(=O)n2ncc3cc(-c4cc(C(=O)NC5CC5)cc(F)c4C)ccc32)cc1,< 10 µM
21,Cc1c(F)cc(C(=O)NC2CC2)cc1-c1ccc2c(cnn2S(=O)(=O)Cc2ccccc2)c1,< 10 µM
22,Cc1ccc(S(=O)(=O)n2ncc3cc(-c4cc(C(=O)NC5CC5)ccc4C)ccc32)cc1,< 10 µM
23,Cc1ccc(S(=O)(=O)n2ccc3cc(-c4cc(C(=O)NC5CC5)cc(F)c4C)ccc32)cc1,< 10 µM
24,COC(=O)c1ccc(S(=O)(=O)n2ncc3cc(-c4cc(C(=O)NC5CC5)ccc4C)ccc32)o1,< 10 µM

row,SMILES,IC50
1,Cc1ccc(C(=O)NC2CC2)cc1-c1ccc2c(cnn2CC(=O)NCC(C)(C)C)c1,< 10 µM
2,Cc1c(F)cc(C(=O)NC2CC2)cc1-c1ccc2c(cnn2S(=O)(=O)c2ccc(Cl)cc2)c1,< 10 µM
3,Cc1c(F)cc(C(=O)NC2CC2)cc1-c1ccc2c(C(=O)NCC3CC3)noc2c1,< 10 µM
4,COc1cccc(S(=O)(=O)n2ncc3cc(-c4cc(C(=O)NC5CC5)ccc4C)ccc32)c1,< 10 µM
5,Cc1ccc(C(=O)NC2CC2)cc1-c1ccc2c(cnn2C2CCNCC2)c1,< 10 µM
6,Cc1ccc(C(=O)NC2CC2)cc1-c1ccc2c(cnn2S(=O)(=O)c2ccccc2)c1,< 10 µM
7,Cc1ccc(CNC(=O)Cn2ncc3cc(-c4cc(C(=O)NC5CC5)ccc4C)ccc32)cc1,< 10 µM
8,Cc1ccc(C(=O)NC2CC2)cc1-c1ccc2c(cnn2S(=O)(=O)c2ccc(-c3ccon3)s2)c1,< 10 µM
9,Cc1ccc(C(=O)NC2CC2)cc1-c1ccc2c(C)noc2c1,< 10 µM
10,Cc1ccc(C(=O)NC2CC2)cc1-c1ccc2c(cnn2CC(=O)NCc2ccccc2)c1,< 10 µM
11,Cc1ccc(C(=O)NC2CC2)cc1-c1ccc2c(CN3CCN(C)CC3)noc2c1,< 10 µM
12,Cc1noc(C)c1S(=O)(=O)n1ncc2cc(-c3cc(C(=O)NC4CC4)cc(F)c3C)ccc21,< 10 µM
13,CNC(=O)c1ccc(CNC(=O)Cn2ncc3cc(-c4cc(C(=O)NC5CC5)cc(F)c4C)ccc32)cc1,< 10 µM
14,Cc1ccc(C(=O)NC2CC2)cc1-c1ccc2c(CN3CCCC3)noc2c1,< 10 µM
15,Cc1ccc(C(=O)Nc2nccs2)cc1-c1ccc2c(C)noc2c1,< 10 µM
16,Cc1ccc(C(=O)NC2CC2)cc1-c1ccc2c(cnn2CC2CC2)c1,< 10 µM
17,Cc1c(F)cc(C(=O)NC2CC2)cc1-c1ccc2[nH]ncc2c1,< 10 µM
18,Cc1ccc(C(=O)NC2CC2)cc1-c1ccc2c(N3CCOCC3)noc2c1,< 10 µM
19,Cc1ccc(C(=O)NC2CC2)cc1-c1ccc2c(cnn2S(=O)(=O)c2cccs2)c1,< 10 µM
20,CCCCS(=O)(=O)n1ncc2cc(-c3cc(C(=O)NC4CC4)cc(F)c3C)ccc21,< 10 µM
21,Cc1ccc(C(=O)NC2CC2)cc1-c1ccc2c(CC(=O)NCCO)noc2c1,< 10 µM
22,Cc1ccc(NC(=O)c2ccsc2)cc1-c1ccc2c(C)noc2c1,< 10 µM
23,Cc1ccc(NC(=O)c2ccoc2)cc1-c1ccc2c(C)noc2c1,< 10 µM
24,Cc1ccc(C(=O)Nc2cccc(N3CCOCC3)c2)cc1-c1ccc2c(C3CCNCC3)noc2c1,< 10 µM

row,SMILES,IC50
1,Cc1ccc(C(=O)NC2CC2)cc1-c1ccc2c(CC(=O)NC3CC3)noc2c1,< 10 µM
2,CCCc1ccc(S(=O)(=O)n2ncc3cc(-c4cc(C(=O)NC5CC5)cc(F)c4C)ccc32)cc1,< 10 µM
3,Cc1ccc(C(=O)NC2CC2)cc1-c1ccc2c(CNC(CO)CO)noc2c1,< 10 µM
4,Cc1c(F)cc(C(=O)NC2CC2)cc1-c1ccc2c(S(C)(=O)=O)n[nH]c2c1,< 10 µM
5,Cc1c(F)cc(C(=O)NC2CC2)cc1-c1ccc2[nH]nc(C)c2c1,< 10 µM
6,Cc1ccc(C(=O)NC2CC2)cc1-c1ccc2c(CC(=O)NCC3CC3)noc2c1,< 10 µM
7,CCCNC(=O)Cn1ncc2cc(-c3cc(C(=O)NC4CC4)cc(F)c3C)ccc21,< 10 µM
8,Cc1ccc(C(=O)NC2CC2)cc1-c1ccc2c(S(=O)(=O)c3ccc(F)cc3)n[nH]c2c1,< 10 µM
9,Cc1ccccc1S(=O)(=O)n1ncc2cc(-c3cc(C(=O)NC4CC4)cc(F)c3C)ccc21,< 10 µM
10,CNC(=O)c1ccc(CNC(=O)Cn2ncc3cc(-c4cc(C(=O)NC5CC5)ccc4C)ccc32)cc1,< 10 µM
11,Cc1ccc(C(=O)NC2CC2)cc1-c1ccc2c(cnn2C2CCN(C(=O)OC(C)(C)C)CC2)c1,< 10 µM
12,Cc1ccc(C(=O)NC2CC2)cc1-c1ccc2c(CC(=O)Nc3nccs3)noc2c1,< 10 µM
13,Cc1ccc(C(=O)NC2CC2)cc1-c1ccc2c(CC(=O)N3CCNCC3)noc2c1,< 10 µM
14,COc1cccc(CNC(=O)Cc2noc3cc(-c4cc(C(=O)NC5CC5)ccc4C)ccc23)c1,< 10 µM
15,CCNC(=O)Cc1noc2cc(-c3cc(C(=O)NC4CC4)ccc3C)ccc12,< 10 µM
16,CCS(=O)(=O)n1ncc2cc(-c3cc(C(=O)NC4CC4)cc(F)c3C)ccc21,< 10 µM
17,Cc1ccc(C(=O)NC2CC2)cc1-c1ccc2c(cnn2CC(=O)NCC2CC2)c1,< 10 µM
18,COc1ccc(S(=O)(=O)n2ncc3cc(-c4cc(C(=O)NC5CC5)cc(F)c4C)ccc32)cc1,< 10 µM
19,Cc1c(F)cc(C(=O)NC2CC2)cc1-c1ccc2c(c1)c(C)nn2S(=O)(=O)c1cccs1,< 10 µM
20,COc1ccc(S(=O)(=O)n2ncc3cc(-c4cc(C(=O)NC5CC5)ccc4C)ccc32)cc1OC,< 10 µM
21,Cc1c(F)cc(C(=O)NC2CC2)cc1-c1ccc2c(cnn2S(=O)(=O)c2ccc(F)cc2F)c1,< 10 µM
22,Cc1ccc(C(=O)NC2CC2)cc1-c1ccc2c(cnn2S(=O)(=O)c2ccccc2[N+](=O)[O-])c1,< 10 µM
23,Cc1c(F)cc(C(=O)NC2CC2)cc1-c1ccc2c(cnn2S(=O)(=O)c2cn(C)c(C)n2)c1,< 10 µM
24,Cc1c(F)cc(C(=O)NC2CC2)cc1-c1ccc2c(C(=O)N(C)C)noc2c1,< 10 µM

row,SMILES,IC50
1,COC(=O)Cn1ncc2cc(-c3cc(C(=O)NC4CC4)cc(F)c3C)ccc21,< 10 µM
2,CCCS(=O)(=O)n1ncc2cc(-c3cc(C(=O)NC4CC4)cc(F)c3C)ccc21,< 10 µM
3,Cc1c(F)cc(C(=O)NC2CC2)cc1-c1ccc2c(cnn2CC(=O)NCc2ccccc2)c1,< 10 µM
4,Cc1ccc(NC(=O)c2ccnc(N3CCCC3)c2)cc1-c1ccc2c(C3CCNCC3)noc2c1,< 10 µM
5,Cc1ccc(NC(=O)c2ccsc2)cc1-c1ccc2c(C3CCNCC3)noc2c1,< 10 µM
6,Cc1ccc(C(=O)NC2CC2)cc1-c1ccc2c(cnn2S(=O)(=O)c2cn(C)cn2)c1,< 10 µM
7,COc1cccc(NC(=O)c2ccc(C)c(-c3ccc4c(C5CCNCC5)noc4c3)c2)c1,< 10 µM
8,Cc1ccc(C(=O)NC2CC2)cc1-c1ccc2nc(NC(=O)C3CC3)sc2c1,< 10 µM
9,Cc1c(F)cc(C(=O)NC2CC2)cc1-c1ccc2c(cnn2CC(=O)NCC2CC2)c1,< 10 µM
10,Cc1c(F)cc(C(=O)NC2CC2)cc1-c1ccc2c(ccn2S(=O)(=O)c2ccccc2)c1,< 10 µM
11,CNC(=O)Cc1noc2cc(-c3cc(C(=O)NC4CC4)ccc3C)ccc12,< 10 µM
12,Cc1ccc(C(=O)NC2CC2)cc1-c1ccc2c(cnn2S(=O)(=O)c2cccc(F)c2)c1,< 10 µM
13,Cc1ccc(C(=O)NC2CC2)cc1-c1ccc2c(cnn2S(=O)(=O)c2cccc(C#N)c2)c1,< 10 µM
14,Cc1c(F)cc(C(=O)NC2CC2)cc1-c1ccc2c(cnn2S(=O)(=O)c2ccc(C(C)C)cc2)c1,< 10 µM
15,Cc1ccc(C(=O)Nc2cccc(N3CCOCC3)c2)cc1-c1ccc2c(C)noc2c1,< 10 µM
16,Cc1c(F)cc(C(=O)NC2CC2)cc1-c1ccc2c(cnn2S(=O)(=O)c2ccc(C#N)cc2)c1,< 10 µM
17,Cc1c(F)cc(C(=O)NC2CC2)cc1-c1ccc2c(cnn2CC(=O)N2CCOCC2)c1,< 10 µM
18,Cc1c(F)cc(C(=O)NC2CC2)cc1-c1ccc2c(cnn2S(=O)(=O)c2ccc(F)c(F)c2)c1,< 10 µM
19,CCCCCCCCS(=O)(=O)n1ncc2cc(-c3cc(C(=O)NC4CC4)cc(F)c3C)ccc21,< 10 µM
20,Cc1ccc(C(=O)NC2CC2)cc1-c1ccc2c(cnn2S(=O)(=O)C2CC2)c1,< 10 µM
21,Cc1ccc(C(=O)NC2CC2)cc1-c1ccc2c(cnn2S(=O)(=O)Cc2ccccc2)c1,< 10 µM
22,Cc1ccc(C(=O)Nc2nccs2)cc1-c1ccc2c(C3CCNCC3)noc2c1,< 10 µM
23,Cc1ccc(C(=O)NC2CC2)cc1-c1ccc2c(cnn2S(=O)(=O)c2ccc(F)cc2)c1,< 10 µM
24,Cc1c(F)cc(C(=O)NC2CC2)cc1-c1ccc2c(cnn2S(=O)(=O)c2ccc(Cl)s2)c1,< 10 µM
